What was measured:
[1] = test system: WSU-DLCL-2 cells; assay: Antiproliferative activity, CCK-8 assay; type: cell-based; settings: Homo sapiens, WSUDLCL2; 144 hours incubation, CCK-8, absorbance at 450 nm
Procedure: (§1) The cell models used in this example were human hematologic tumor cells, including NCI-H929, RPMI-8226, MV-4-11, U937 and WSU-DLCL-2. Some of the compounds of the present invention were selected to determine their inhibitory activity against the proliferation of NCI-H929, RPMI-8226, MV-4-11, U937, and WSU-DLCL-2 cells.
(§2) • ① The selected compounds were dissolved in DMSO to prepare 10 mM stock solutions. Compounds used within three months should be stored at room temperature in a desiccator; others could be stored at -20°C for long-term storage. • ② The above stock solutions and the positive reference compound pomalidomide were diluted with DMSO. Their initial concentrations were 10 µM. In the experiments of NCI-H929 and RPMI-8226 cells, 3-fold serial dilution with 11 concentration points was performed, with the lowest concentration of 0.00047 µM. The resulting solutions were shaken on a shaker for 5 minutes.
(§3) • ① The NCI-H929, RPMI-8226, MV-4-11, U937, and WSU-DLCL-2 cells in logarithmic growth phase were inoculated in a 96-well plate, 20,000 to 30,000 cells per well, and the plate was pre-cultured for 24 hours in an incubator (at 37°C and 5% CO2). • ② The culture medium in the plate was replaced, and the compounds and the positive control with corresponding concentrations were added to the plated at a volume of 50 µl. • ③ The plate was incubated for 144 hours in an incubator, then 15 µl of CCK-8 solution was added to each well, and incubated in the incubator for another 1-4 hours. • ④ The absorbance at 450 nm was measured using a microplate reader.
(§4) • ① Calculating % Inhibition: [formula] • ② Calculating IC50 value of compound and plotting dose-response curve: The IC50 value was calculated by fitting the % Inhibition and the logarithm of compound concentration to a nonlinear regression (dose response-variable slope) by using GraphPad 6.0. • Y = Bottom + (Top - Bottom) / (1 + 10^((LogIC50 - X) * HillSlope)) • X: log of inhibitor concentration; Y: % Inhibition.
(§5) After calculating % Inhibition, a dose-response curve was plotted with the logarithm of the test compound concentration as the x-axis and the average cell viability as the y-axis, and the IC50 value was obtained by fitting.

[2] = test system: NCI-H929 cells; assay: Antiproliferative activity, CCK-8 assay; type: cell-based; settings: Homo sapiens, 144 hours incubation, CCK-8, absorbance at 450 nm, read-out: IC50 (µM) H-929
Procedure: as §1, §2, §3, §4, §5

[3] = test system: MV-4-11 cells; assay: Antiproliferative activity, CCK-8 assay; type: cell-based; settings: Homo sapiens, MV4-11; 144 hours incubation, CCK-8, absorbance at 450 nm
Procedure: as §1, §2, §3, §4, §5

[4] = test system: U937 cells; assay: Antiproliferative activity, CCK-8 assay; type: cell-based; settings: Homo sapiens, U-937; 144 hours incubation, CCK-8, absorbance at 450 nm
Procedure: as §1, §2, §3, §4, §5

[5] = test system: human multiple myeloma RPMI-8226 xenograft tumors; assay: In vivo activity against RPMI-8226 transplanted tumor; set-up: species or system NOD/SCID mice; settings: 10 mg/kg, QD; for Tumor inhibition rate TGI (%) / Volume (mm^3), 0 days / Volume (mm^3), 12 days: oral gavage; for Tumor inhibition rate TGI (%): 12 consecutive days; for Volume (mm^3), 0 days: tumor volume at 0 days (baseline); for Volume (mm^3), 12 days: tumor volume at 12 days
Procedure: In this example, human multiple myeloma RPMI-8226 cell line was used as the cell model. The inhibitory effects of compounds on the growth of NOD/SCID mouse transplanted tumors of RPMI-8226 tumor cells were determined. The evaluation methods and results are described below.
Human multiple myeloma RPMI-8226 cells were routinely cultured in RPMI1640 containing 10% fetal bovine serum at 37°C in a 5% CO2 incubator. After three passages in vitro, when the cells reached over 80% confluence and the required confluence rate, the cells were digested and harvested. After washing with PBS, the cells were counted and the cell concentration was adjusted to approximately 5 × 10^7 cells/mL. The cells were then placed in 4 mL centrifuge tubes on ice for later use.
Female NOD/SCID mice aged 4-5 weeks were selected and subcutaneously inoculated with RPMI-8226 cells ectopically. The mice were held in a lateral position, the forelimb axilla was disinfected with 75% alcohol, and 100 µL of the cell suspension was injected subcutaneously into the axilla using a 1 mL syringe ([…]/100 µL).
Once the tumors grew to 90-150 mm^3, the animals were randomly grouped, 8 mice per group, and administered according to different administration methods as follows: • Model control group: administered with the same volume of Vehicle (DMSO: 0.5% sodium carboxymethyl cellulose: distilled water = 1:1:8) daily by gavage; • Test groups: administered with compound I-4 and compound I-8 solutions at 10 mg/kg (mouse body weight) daily by gavage, respectively; • Positive control group: administered with pomalidomide solution at 10 mg/kg (mouse body weight) daily by gavage.
The route of administration was oral gavage, and the administration frequency was once daily, for 12 consecutive days. The first day of administration was defined as Day 1 of the experiment. Tumor volume changes in mice were measured and recorded every two days. Tumor volume was measured using a vernier caliper, in which the major axis (a) and minor axis (b) of the tumor were measured, and the tumor volume was calculated as: tumor volume V (mm^3) = a x b^2/2. After the experiment, the mice were dissected and the tumor weight was measured. The data were entered and statistically analyzed using GraphPad Prism 6 software. The data are expressed as mean ± SEM (Standard Error of Mean), and one-way ANOVA was used. P ≤ 0.05 was considered statistically significant.

`CN1Cc2c(N)cccc2C(=O)N1C1CCC(=O)NC1=O` (centres unmarked) [I-4, 3-(5-amino-3-methyl-1-oxo-3,4-dihydrophthalazin-2(1H)-yl)piperidin-2,6-dione] was tested, and the IC50 [1] was 1.21 µM, the IC50 [2] was 0.116 µM and the IC50 [3] was 0.183 µM. The IC50 [4] was 0.31 µM, the “growth of RPMI-8226 transplanted tumors (in words)” value [5] was “significantly inhibit the growth” and the “Tumor inhibition rate TGI (%)” value [5] was 73.38%. The “Volume (mm^3), 0 days” value [5] was 189.0 mm^3 and the “Volume (mm^3), 12 days” value [5] was 541.1 mm^3.
Molecule `CN1Cc2c(NCc3ccc(CN4CCN(c5ccc(C#N)c(F)c5)CC4)cc3)cccc2C(=O)N1C1CCC(=O)NC1=O` (centres unmarked) [I-8] has an IC50 [1] of 0.017 µM, an IC50 [2] of 0.0039 µM and an IC50 [3] of 0.0058 µM. The IC50 [4] was 0.0088 µM, the “growth of RPMI-8226 transplanted tumors (in words)” value [5] was “significantly inhibit the growth” and the “Tumor inhibition rate TGI (%)” value [5] was 80.13%. The “Volume (mm^3), 0 days” value [5] was 257.5 mm^3 and the “Volume (mm^3), 12 days” value [5] was 520.3 mm^3.
In the case of `Nc1cccc2c1C(=O)N(C1CCC(=O)NC1=O)C2=O` (centres unmarked) [Pomalidomide, reference compound], the IC50 [1] is reported as greater than 10 µM, the IC50 [2] is reported as 3.91 µM and the IC50 [3] is reported as greater than 10 µM. For the same molecule, the IC50 [4] was 2.53 µM, the “Tumor inhibition rate TGI (%)” value [5] was 47.80% and the “Volume (mm^3), 0 days” value [5] was 180.0 mm^3. The “Volume (mm^3), 12 days” value [5] was 870.4 mm^3.
